From US11806790B2, “Biosynthesis of metal nanoparticles” (KING SAUD UNIVERSITY, priority 2019, dated 2023)

Experiments:
Design in all cases: key: R = resistant; S = susceptible; BLAC = Beta-lactamase positive
S. aureus (S) = experiment: Susceptibility test of Gram positive Bacteria; format: cell-based
S. epidermidis (S) = experiment: Susceptibility test of Gram positive Bacteria; format: cell-based
S. epidermidis (R) = experiment: Susceptibility test of Gram positive Bacteria; format: cell-based
MRSA = experiment: Susceptibility test of Gram positive Bacteria; format: cell-based, Methicillin-resistant S. aureus
A. baumannii (R) = experiment: Susceptibility test of Gram negative Bacteria; format: cell-based
A. baumannii (S) = experiment: Susceptibility test of Gram negative Bacteria; format: cell-based
E. coli (R) = experiment: Susceptibility test of Gram negative Bacteria; format: cell-based
E. coli (S) = experiment: Susceptibility test of Gram negative Bacteria; format: cell-based

**Q.** Which results are given for `Cc1onc(-c2ccccc2)c1C(=O)N[C@@H]1C(=O)N2[C@@H]1SC(C)(C)[C@@H]2C(=O)O` [Oxacillin]?
**A.** Susceptibility test (S. aureus (S)): S; Susceptibility test (S. epidermidis (S)): S; Susceptibility test (S. epidermidis (R)): R; Susceptibility test (MRSA): R

**Q.** `CO/N=C(\C(=O)N[C@@H]1C(=O)N2C(C(=O)O)=C(COC(C)=O)CS[C@H]12)c1csc(N)n1` [Cefotaxime] was tested. Which Susceptibility test (A. baumannii (R)) did it give?
**A.** The Susceptibility test was “R”.

**Q.** And the Susceptibility test (A. baumannii (S))?
**A.** The Susceptibility test was “S”.

**Q.** What about the Susceptibility test (S. epidermidis (R)) of the same compound?
**A.** The Susceptibility test was “R”.

**Q.** How did the Susceptibility test (S. aureus (S)) turn out when `CO[C@@]1(NC(=O)Cc2cccs2)C(=O)N2C(C(=O)O)=C(COC(N)=O)CS[C@@H]21` [Cefoxitin] was run?
**A.** The Susceptibility test was “Negative”.

**Q.** What about the Susceptibility test (S. epidermidis (S)) of the same compound?
**A.** The Susceptibility test was “S”.

**Q.** What about the Susceptibility test (A. baumannii (R)) of the same compound?
**A.** The Susceptibility test was “R”.

**Q.** What about the Susceptibility test (S. epidermidis (R)) of the same compound?
**A.** Its Susceptibility test is “R”.

**Q.** What about the Susceptibility test (MRSA) of the same compound?
**A.** Its Susceptibility test is “Positive”.

**Q.** For `CO/N=C(\C(=O)N[C@@H]1C(=O)N2C(C(=O)O)=C(COC(N)=O)CS[C@H]12)c1ccco1` [Cefuroxime], which Susceptibility test (E. coli (R)) is on record?
**A.** The Susceptibility test was “R”.

**Q.** What about the Susceptibility test (A. baumannii (R)) of the same compound?
**A.** Its Susceptibility test is “R”.

**Q.** And the Susceptibility test (A. baumannii (S))?
**A.** Its Susceptibility test is “S”.

**Q.** Which Susceptibility test (E. coli (S)) does the source give for `CC1(C)S[C@@H]2[C@H](NC(=O)[C@H](N)c3ccccc3)C(=O)N2[C@H]1C(=O)O` [Ampicillin] here?
**A.** The Susceptibility test was “S”.

**Q.** And the Susceptibility test (S. aureus (S))?
**A.** The Susceptibility test was “BLAC”.

**Q.** What about the Susceptibility test (S. epidermidis (S)) of the same compound?
**A.** The Susceptibility test was “S”.

**Q.** And the Susceptibility test (E. coli (R))?
**A.** Its Susceptibility test is “R”.

**Q.** What about the Susceptibility test (A. baumannii (R)) of the same compound?
**A.** The Susceptibility test was “R”.

**Q.** And the Susceptibility test (S. epidermidis (R))?
**A.** Its Susceptibility test is “R”.

**Q.** What about the Susceptibility test (MRSA) of the same compound?
**A.** Its Susceptibility test is “BLAC”.

**Q.** Which Susceptibility test (A. baumannii (R)) does the source give for `O=C1CN(/N=C/c2ccc([N+](=O)[O-])o2)C(=O)N1` [Nitrofurantoin] here?
**A.** The Susceptibility test was “R”.

**Q.** How did the Susceptibility test (S. aureus (S)) turn out when `CCC[C@@H]1C[C@@H](C(=O)N[C@@H]([C@H]2O[C@H](SC)[C@H](O)[C@@H](O)[C@H]2O)[C@H](C)Cl)N(C)C1` [Clindamycin] was run?
**A.** Its Susceptibility test is “S”.

**Q.** And the Susceptibility test (S. epidermidis (S))?
**A.** Its Susceptibility test is “S”.

**Q.** What about the Susceptibility test (S. epidermidis (R)) of the same compound?
**A.** The Susceptibility test was “R”.

**Q.** For `O=C(O)c1cn(C2CC2)c2cc(N3CCNCC3)c(F)cc2c1=O` [Ciprofloxacin], which Susceptibility test (S. aureus (S)) is on record?
**A.** Its Susceptibility test is “S”.

**Q.** And the Susceptibility test (S. epidermidis (S))?
**A.** The Susceptibility test was “S”.

**Q.** And the Susceptibility test (S. epidermidis (R))?
**A.** Its Susceptibility test is “R”.

**Q.** And the Susceptibility test (MRSA)?
**A.** Its Susceptibility test is “S”.

**Q.** With Trimethoprim-Sulfamethoxazole as the compound, how does the Susceptibility test (S. aureus (S)) read?
**A.** Its Susceptibility test is “S”.

**Q.** What about the Susceptibility test (S. epidermidis (S)) of the same compound?
**A.** The Susceptibility test was “S”.

**Q.** What about the Susceptibility test (S. epidermidis (R)) of the same compound?
**A.** Its Susceptibility test is “R”.

**Q.** And the Susceptibility test (MRSA)?
**A.** The Susceptibility test was “S”.

**Q.** What does the source list for `CC1(C)S[C@@H]2[C@H](NC(=O)[C@H](N)c3ccc(O)cc3)C(=O)N2[C@H]1C(=O)O` [Amoxicillin]?
**A.** Susceptibility test (E. coli (S)): S; Susceptibility test (E. coli (R)): R; Susceptibility test (A. baumannii (R)): R; Susceptibility test (A. baumannii (S)): S

**Q.** `C[C@H]1[C@H](NC(=O)/C(=N\OC(C)(C)C(=O)O)c2csc(N)n2)C(=O)N1S(=O)(=O)O` [Aztreonam] was tested. Which Susceptibility test (E. coli (S)) did it give?
**A.** Its Susceptibility test is “S”.

**Q.** What about the Susceptibility test (E. coli (R)) of the same compound?
**A.** The Susceptibility test was “R”.

**Q.** What about the Susceptibility test (A. baumannii (R)) of the same compound?
**A.** The Susceptibility test was “R”.

**Q.** For Gentamycin, which Susceptibility test (S. aureus (S)) is on record?
**A.** Its Susceptibility test is “S”.

**Q.** What about the Susceptibility test (S. epidermidis (S)) of the same compound?
**A.** Its Susceptibility test is “S”.

**Q.** What about the Susceptibility test (S. epidermidis (R)) of the same compound?
**A.** Its Susceptibility test is “R”.

**Q.** And the Susceptibility test (MRSA)?
**A.** The Susceptibility test was “S”.

**Q.** How did the Susceptibility test (E. coli (S)) turn out when `CC(=O)OCC1=C(C(=O)O)N2C(=O)[C@@H](NC(=O)Cc3cccs3)[C@H]2SC1` [Cefalotin] was run?
**A.** The Susceptibility test was “S”.

**Q.** And the Susceptibility test (E. coli (R))?
**A.** The Susceptibility test was “R”.

**Q.** How did the Susceptibility test (E. coli (S)) turn out when `C=CC1=C(C(=O)O)N2C(=O)[C@@H](NC(=O)/C(=N\OCC(=O)O)c3csc(N)n3)[C@H]2SC1` [Cefixime] was run?
**A.** Its Susceptibility test is “S”.

**Q.** What about the Susceptibility test (E. coli (R)) of the same compound?
**A.** The Susceptibility test was “R”.

**Q.** What about the Susceptibility test (A. baumannii (R)) of the same compound?
**A.** The Susceptibility test was “R”.

**Q.** With Amoxicillin-Clavulanate as the compound, how does the Susceptibility test (S. aureus (S)) read?
**A.** The Susceptibility test was “S”.

**Q.** And the Susceptibility test (S. epidermidis (S))?
**A.** The Susceptibility test was “S”.

**Q.** What about the Susceptibility test (A. baumannii (R)) of the same compound?
**A.** Its Susceptibility test is “R”.

**Q.** And the Susceptibility test (S. epidermidis (R))?
**A.** Its Susceptibility test is “R”.

**Q.** And the Susceptibility test (MRSA)?
**A.** Its Susceptibility test is “R”.

**Q.** Which Susceptibility test (A. baumannii (R)) does the source give for `CO/N=C(\C(=O)N[C@@H]1C(=O)N2C(C(=O)O)=C(CSc3nc(=O)c(O)nn3C)CS[C@H]12)c1csc(N)n1` [Ciftriaxone] here?
**A.** The Susceptibility test was “R”.

**Q.** Which results are given for `C/C(=C\C(=O)OCCCCCCCCC(=O)O)C[C@@H]1OC[C@H](C[C@@H]2O[C@H]2[C@@H](C)[C@H](C)O)[C@@H](O)[C@H]1O` [Mupirocin]?
**A.** Susceptibility test (S. aureus (S)): S; Susceptibility test (S. epidermidis (S)): S; Susceptibility test (S. epidermidis (R)): R; Susceptibility test (MRSA): S

**Q.** Which results are given for `CC1(C)S[C@@H]2[C@H](NC(=O)Cc3ccccc3)C(=O)N2[C@H]1C(=O)O` [Penicillin G]?
**A.** Susceptibility test (S. aureus (S)): BLAC; Susceptibility test (S. epidermidis (S)): S; Susceptibility test (S. epidermidis (R)): R; Susceptibility test (MRSA): BLAC

**Q.** `CC[C@H]1OC(=O)[C@H](C)[C@@H](O[C@H]2C[C@@](C)(OC)[C@@H](O)[C@H](C)O2)[C@H](C)[C@@H](O[C@@H]2O[C@H](C)C[C@H](N(C)C)[C@H]2O)[C@](C)(O)C[C@@H](C)C(=O)[C@H](C)[C@@H](O)[C@]1(C)O` [Erythromycin] was tested. Which Susceptibility test (S. aureus (S)) did it give?
**A.** Its Susceptibility test is “R”.

**Q.** And the Susceptibility test (S. epidermidis (S))?
**A.** Its Susceptibility test is “S”.

**Q.** What about the Susceptibility test (S. epidermidis (R)) of the same compound?
**A.** The Susceptibility test was “R”.

**Q.** With `C[C@@H](O)[C@H]1C(=O)N2C(C(=O)O)=C(SCCN=CN)C[C@H]12` [Imipenem] as the compound, how does the Susceptibility test (S. aureus (S)) read?
**A.** The Susceptibility test was “S”.

**Q.** And the Susceptibility test (S. epidermidis (S))?
**A.** The Susceptibility test was “S”.

**Q.** What about the Susceptibility test (S. epidermidis (R)) of the same compound?
**A.** The Susceptibility test was “R”.

**Q.** And the Susceptibility test (MRSA)?
**A.** Its Susceptibility test is “R”.
